These results are taken from patent US20220273617A1, “ANTI-CANCER, ANTI-INFLAMMATORY AND IMMUNOMODULATORY ACTIVITY OF R-CARVEDILOL AND METHODS OF USE” (priority 2021, published 2022).

The subject of series [1] is B(a)P-induced lung toxicity. Put plainly: Short term single dose B(a)P-induced lung toxicity in mice. Type of series: in vivo, CD1/IGS mice. The text has this:
Chronic exposure to carcinogens that are present in tobacco smoking or air pollution is a well-known cause of lung cancer. One of the most important strategies to manage lung cancer is chemoprevention, which uses synthetic or natural products to block or reverse lung cancer initiation, promotion, and progression. Benzo(a)pyrene (B(a)P), a polycyclic aromatic hydrocarbon, is a pro-carcinogen ubiquitously present as pollutants in the environment. It is mostly produced during cigarette smoking and is present in automobile exhausts, and causes lung toxicity and lung cancer after metabolic activation. A single dose B(a)P-induced lung toxicity study in mice was used to evaluate the protective effects of carvedilol. In male CD1/IGS mice, carvedilol was orally administered (20 mg/kg body weight) once a day for 7 days. The mice were then treated with a single dose B(a)P via oral gavage (125 mg/kg body weight) on day 7, 30 min after the drug treatment. Mice were sacrificed 24 hours after B(a)P treatment. As expected, B(a)P increased the plasma levels of lactate dehydrogenase (LDH) and Malondialdehyde (MDA) for lipid peroxides (LPO).

Series [2] in a line: Systolic blood pressure of mice, noninvasive tail-cuff system. Type of series: in vivo. The note with it: drinking water, 32 mg/kg/day, 2 weeks, male SKH-1 mice. On the procedure:
SKH-1 mice were given racemic carvedilol or R-carvedilol in drinking water for two weeks (32 mg/kg/day). Blood pressure was examined in mice utilizing a Kent CODATM noninvasive tail-cuff system.

The conditions of series [3]: oral 1.6 mg/kg, mice; cited from earlier work.
Series [4] can be described thus: Ex vivo permeation across rat skin, Franz diffusion cells. The class given is in vitro ADME. To be noted: control formulation: PBS pH 7.4 with 40% v/v PEG 400. On the procedure:
Instead of nanoparticle-based topical delivery, the present inventors have explored other methods of skin delivery of drugs. They investigated the effects of natural penetration enhancers on the ex vivo permeation of carvedilol across rat skin. […] The drug formulations containing carvedilol or R-carvedilol (200 μg/mL) (1 mL) was loaded on Franz diffusion cells using excised rat dorsal skin (with hair removed). […] D-limonene is isolated from orange peel, and is a cheap and safe option to delivery carvedilol (same for R-carvedilol) for skin cancer prevention. D-limonene is present in many skin commercial products such as perfumes and essential oils. Therefore, this invention provides another novel approach of making skin targeting formulation for both carvedilol and R-carvedilol. This approach of making skin formulation is not only safe but also easier to scale up to industry level for making large amount.

A further series relates to B(a)P-induced lung tumor. Put plainly: Long term B(a)P-induced lung carcinogenesis in A/J mice. The note with it: for tumor incidence: B(a)P only 100%. Type of series: in vivo. The method, then: To examine the chemopreventive efficacy of carvedilol, we used an established lung carcinogenesis model in A/J mice induced by B(a)P. Two drug doses were examined: 20 mg/kg (H) and 3.2 mg/kg (L). The mice were randomly divided by body weight into seven groups at the beginning of the experiments. To induce lung tumor, mice were given a single intraperitoneal (i.p.) injection of B(a)P at 100 mg/kg body weight in 0.2 ml tricaprylin. The following are treatment groups: (1) vehicle control, n=8; (2) B(a)P only, n=9; (3) B(a)P+gefitinib 400 mg/kg, weekly oral gavage, positive control, n=10; (4) B(a)P+carvedilol 20 mg/kg drinking water, n=9; (5) B(a)P+carvedilol 3.2 mg/kg drinking water, n=8; (6) B(a)P+R-carvedilol 20 mg/kg drinking water, n=9; (7) B(a)P+R-carvedilol 3.2 mg/kg drinking water, n=10. The mice began the drug treatments 3 weeks before B(a)P treatment and terminated at 23 weeks after B(a)P treatment. […] Tumor multiplicity was determined by counting surface tumors in fixed lung under a dissecting microscope. […] The tumor incidence for gefitinib group was 70%. The tumor incidence was 89% and 50% for high and low dose carvedilol, respectively. The tumor incidence was 67% and 70% for high and low dose R-carvedilol, respectively.

In series [5] the test system is UV induced skin damage and inflammation. Put plainly: Acute UV induced skin damage and inflammation model. Type of series: in vivo, mouse. To be noted: topical 0.1, 1 or 10 μM in acetone immediately after single UV 300 mJ/cm^2. The method, then:
In an acute UV induced skin damage and inflammation model induced with a single dose of UV (300 mJ/cm^2), topical treatment with R-carvedilol (0.1, 1 or 10 μM in acetone as a vehicle), applied immediately after the UV, attenuated mouse skin edema and reduced epidermal thickening, Ki-67 staining, COX-2 protein, IL-6 and IL-10 mRNA levels.

The conditions of series [6]: R-carvedilol alone, healthy human volunteers; cited from earlier work.
The nature of series [7]: In vitro penetration and skin retention, Franz diffusion cells and porcine ear skin. The class given is in vitro ADME. To be noted: Franz diffusion cells, porcine ear skin; free drug in water or PEG 400. An excerpt:
Thus, topical route has been investigated as a major approach in the application of R-carvedilol for clinical skin cancer prevention. In order to prepare for clinical studies, we prepared three types of transfersome-based formulation for R-carvedilol using different amount of phospholipid (soy phosphatidylcholine, SPC) or edge activator (tween-80). The particle sizes, zeta potential, encapsulation efficiency and stability for these transfersomes were very similar to those of T-CAR. […] This confirms that nano-transfersomes provide a promising delivery system for both carvedilol and R-carvedilol. Thus, this selected transfersomal formulation for R-carvedilol, named “T-RCAR”, will be further characterized in preclinical model systems and examined in clinical trials in the future.

Where [8] appears, read: oral 20 mg/kg once a day for 7 days, B(a)P 125 mg/kg on day 7.

With `COc1ccccc1OCCNC[C@@H](O)COc1cccc2[nH]c3ccccc3c12` [R-carvedilol], in series [1] (setting [8]), the “plasma LDH levels” value is “significantly attenuated” and the “plasma MDA levels (LPO)” value is recorded as “significantly attenuated”. Besides, in series [1] (oral, compared with racemic carvedilol), the “protection against B(a)P-induced histological changes and COX-2 expression” value is on record as “same degree of protection as the racemic carvedilol”. For the same molecule, the “mean systolic blood pressure” value in series [2] was “did not alter blood pressure”. Besides, the “heart rate or blood pressure” value in series [3] is recorded as “did not alter heart rate or blood pressure”. For the same molecule, the skin permeation result in series [4] is on record as “minimal”. Also, the tumor inhibition entry in the series on B(a)P-induced lung tumor (20 and 3.2 mg/kg drinking water) was “same trend of tumor inhibition as carvedilol”. This molecule returned a tumor incidence in the series with B(a)P-induced lung tumor (high dose 20 mg/kg drinking water) of 67%. Moreover, in the series on B(a)P-induced lung tumor (low dose 3.2 mg/kg drinking water), the tumor incidence is 70%. For the same molecule, in series [5], the COX-2 protein entry is listed as “reduced”, the “IL-6 mRNA levels” value is on record as “reduced”, the “IL-10 mRNA levels” value is listed as “reduced” and the Ki-67 staining result is given as “reduced”. Also, in series [5], the epidermal thickening entry is reported as “reduced” and the mouse skin edema result is on record as “attenuated”. Moreover, the adverse effects result in series [6] is reported as “without major adverse effects”. For the same molecule, in series [7], the skin permeation result is reported as “very little” and the skin retention result is on record as “very little”.
